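Assay format: 96-well plates, 48-hour exposure. At the TGI there is no net growth.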
Experiments:
Experiment in all cases: NCI-60 cell line screen, 48 h
SF-268 CNS = system: SF-268 CNS
CAKI-1 renal = system: CAKI-1 renal
UO-31 renal = system: UO-31 renal
M19-MEL melanoma = system: M19-MEL melanoma
XF 498 CNS = system: XF 498 CNS
ACHN renal = system: ACHN renal
SF-539 CNS = system: SF-539 CNS
NCI-H226 lung = system: NCI-H226 lung
M14 melanoma = system: M14 melanoma
K-562 leukemia = system: K-562 leukemia
SNB-19 CNS = system: SNB-19 CNS
KM12 colon = system: KM12 colon
HT29 colon = system: HT29 colon
RPMI-8226 leukemia = system: RPMI-8226 leukemia
EKVX NSCLC = system: EKVX NSCLC
A498 renal = system: A498 renal
HOP-92 NSCLC = system: HOP-92 NSCLC
CCRF-CEM leukemia = system: CCRF-CEM leukemia
HOP-62 NSCLC = system: HOP-62 NSCLC
KM20L2 colon = system: KM20L2 colon
NCI-H460 lung = system: NCI-H460 lung
DLD-1 colon = system: DLD-1 colon
SN12C renal = system: SN12C renal
UACC-62 melanoma = system: UACC-62 melanoma
NCI-H522 lung = system: NCI-H522 lung
SNB-75 CNS = system: SNB-75 CNS
IGROV1 ovarian = system: IGROV1 ovarian
SR leukemia = system: SR leukemia
HL-60(TB) leukemia = system: HL-60(TB) leukemia
A549 NSCLC = system: A549 NSCLC
COLO 205 colon = system: COLO 205 colon
LXFL 529 NSCLC = system: LXFL 529 NSCLC
U251 CNS = system: U251 CNS
HCT-116 colon = system: HCT-116 colon
HOP-18 NSCLC = system: HOP-18 NSCLC
DMS 273 small cell lung = system: DMS 273 small cell lung
DMS 114 small cell lung = system: DMS 114 small cell lung
SF-295 CNS = system: SF-295 CNS
SK-OV-3 ovarian = system: SK-OV-3 ovarian
NCI-H23 lung = system: NCI-H23 lung
MOLT-4 leukemia = system: MOLT-4 leukemia
SK-MEL-5 melanoma = system: SK-MEL-5 melanoma
UACC-257 melanoma = system: UACC-257 melanoma
OVCAR-3 ovarian = system: OVCAR-3 ovarian
LOX IMVI melanoma = system: LOX IMVI melanoma
OVCAR-4 ovarian = system: OVCAR-4 ovarian
SK-MEL-2 melanoma = system: SK-MEL-2 melanoma
HCC-2998 colon = system: HCC-2998 colon
OVCAR-8 ovarian = system: OVCAR-8 ovarian
TK-10 renal = system: TK-10 renal
SK-MEL-28 melanoma = system: SK-MEL-28 melanoma
786-0 renal = system: 786-0 renal
RXF 393 renal = system: RXF 393 renal
HCT-15 colon = system: HCT-15 colon
SW-620 colon = system: SW-620 colon
RXF-631 renal = system: RXF-631 renal
SNB-78 CNS = system: SNB-78 CNS
OVCAR-5 ovarian = system: OVCAR-5 ovarian
MALME-3M melanoma = system: MALME-3M melanoma

Measured: TGI

COC(=O)[C@H](Cc1ccccc1)NC(=O)/C(=C/C(C)C)NC(=O)[C@H](CCSC)NC=O
> 100 µM: SF-268 CNS | CAKI-1 renal | UO-31 renal | M19-MEL melanoma | XF 498 CNS | ACHN renal | SF-539 CNS | NCI-H226 lung | M14 melanoma | K-562 leukemia | SNB-19 CNS | KM12 colon | HT29 colon | RPMI-8226 leukemia | EKVX NSCLC | A498 renal | HOP-92 NSCLC | CCRF-CEM leukemia | HOP-62 NSCLC | KM20L2 colon | NCI-H460 lung | DLD-1 colon | SN12C renal | UACC-62 melanoma | NCI-H522 lung | SNB-75 CNS | IGROV1 ovarian | SR leukemia | HL-60(TB) leukemia | A549 NSCLC | COLO 205 colon | LXFL 529 NSCLC | U251 CNS | HCT-116 colon | HOP-18 NSCLC | DMS 273 small cell lung | DMS 114 small cell lung | SF-295 CNS | SK-OV-3 ovarian | NCI-H23 lung | MOLT-4 leukemia | SK-MEL-5 melanoma | UACC-257 melanoma | OVCAR-3 ovarian | LOX IMVI melanoma | OVCAR-4 ovarian | SK-MEL-2 melanoma | HCC-2998 colon | OVCAR-8 ovarian | TK-10 renal | SK-MEL-28 melanoma | 786-0 renal | RXF 393 renal | HCT-15 colon | SW-620 colon

CC(=O)Nc1ccccc1-c1nc2ccccc2nc1C
> 100 µM: SF-268 CNS | CAKI-1 renal | UO-31 renal | M19-MEL melanoma | ACHN renal | SF-539 CNS | NCI-H226 lung | RXF-631 renal | M14 melanoma | K-562 leukemia | SNB-19 CNS | KM12 colon | HT29 colon | RPMI-8226 leukemia | EKVX NSCLC | SNB-78 CNS | A498 renal | HOP-92 NSCLC | CCRF-CEM leukemia | HOP-62 NSCLC | KM20L2 colon | NCI-H460 lung | DLD-1 colon | SN12C renal | UACC-62 melanoma | NCI-H522 lung | SNB-75 CNS | IGROV1 ovarian | SR leukemia | HL-60(TB) leukemia | A549 NSCLC | COLO 205 colon | LXFL 529 NSCLC | U251 CNS | HCT-116 colon | HOP-18 NSCLC | DMS 114 small cell lung | SF-295 CNS | SK-OV-3 ovarian | NCI-H23 lung | MOLT-4 leukemia | SK-MEL-5 melanoma | UACC-257 melanoma | OVCAR-3 ovarian | LOX IMVI melanoma | OVCAR-4 ovarian | OVCAR-5 ovarian | SK-MEL-2 melanoma | OVCAR-8 ovarian | TK-10 renal | SK-MEL-28 melanoma | 786-0 renal | MALME-3M melanoma | HCT-15 colon | SW-620 colon
